For test [1], the system named is GFP-FtsI expressing E. coli. Also on record: method as in PMID 19995973. The conditions noted are these: known inhibitor of FtsI; 22 μM in Fig. 5C; cited from earlier work.
The test system of test [2] is VRE (VanA phenotype). The arrangement: method as in PMID 27663982, PMID 24846441, PMID 14972384. The conditions noted are these: cited from earlier work.
In test [3] the test system is carbapenem-resistant A. baumannii. The test can be described thus: Murine chronic burn-wound infection model. The conditions noted are these: 30 mg kg^−1 topically for 5 days; untreated 8 log CFU g^−1. In kind it is in vivo, mice. As for the experimental part:
Fig. 6 (A) Propensity of vancomycin and VanQAmC10 to induce resistance in MRSA upon serial exposure to sub-MIC concentrations; (B) (i) experimental design for in vivo efficacy study in a murine thigh infection model, (ii) in vivo efficacy of VanQAmC10 and vancomycin against the multidrug-resistant methicillin-resistant S. aureus (MRSA) (n = 3/dose). Antibiotics were administered intraperitoneally twice at 12 h intervals at a dose of 12 mg kg^−1. (C) (i) Experimental design for in vivo efficacy study in murine burn wound infection model, (ii) in vivo efficacy of VanQAmC10 and colistin against the carbapenem-resistant A. baumannii (n = 5/dose, 1 mouse died in untreated control). VanQAmC10 and colistin were treated topically at 30 mg kg^−1 for 5 days (‘***’ indicates p < 0.0001, ‘**’ indicates p < 0.001, ‘*’ p < 0.05, p = 0.08 (n.s.) for VanQAmC10 with respect to vancomycin).
Further, the efficacy of VanQAmC10 (8) was tested in a chronic burn-wound infection model of A. baumannii.[40] Chronic burn wounds on the back of mice were infected with A. baumannii. […] Infected mice were treated with 30 mg kg^−1 of VanQAmC10 and colistin for five days consecutively. The bacterial load in the untreated group increased to 8 log CFU g^−1 six days post-infection. […] The use of colistin is however limited due to its toxicity and bacteria easily develop resistance to it. […]

Converted amounts (≈) assume the structure as drawn.

As for `CC1=C(C(=O)O)N2C(=O)[C@@H](NC(=O)[C@H](N)c3ccccc3)[C@H]2SC1` [Cephalexin], the “phenotype and localization of GFP-FtsI” value in test [1] is “filamentous phenotype with mislocalized GFP-FtsI protein”.

For the compound `CCCCCCCCCCNCCN[C@@]1(C)C[C@H](O[C@H]2[C@H](Oc3c4cc5cc3Oc3ccc(cc3Cl)[C@@H](O)[C@@H](NC(=O)[C@@H](CC(C)C)NC)C(=O)N[C@@H](CC(N)=O)C(=O)N[C@H]5C(=O)N[C@H]3C(=O)N[C@H](C(=O)N[C@H](C(=O)O)c5cc(O)c(CNCP(=O)(O)O)c(O)c5-c5cc3ccc5O)[C@H](O)c3ccc(c(Cl)c3)O4)O[C@H](CO)[C@@H](O)[C@@H]2O)O[C@@H](C)[C@H]1O` [telavancin], the “MIC against VRE (VanA phenotype)” value in test [2] was 4 µM (≈ 7.02 µg/mL).

For the compound colistin [reference compound], the “lower bacterial load as compared to the untreated mice” value in test [3] turned out to be 4.8 log CFU g^−1.

Source of the values: publication PMC9977398, “Next-generation membrane-active glycopeptide antibiotics that also inhibit bacterial cell division” (Chemical Science, 2023).
